Measured values as given in paper PMC8500670, “A selective WDR5 degrader inhibits acute myeloid leukemia in patient-derived mouse models” (Science translational medicine, 2021).

What was measured:
Assay in all cases: biochemical
[1] = molecular target: NEK2 (Homo sapiens, UniProt P51955); design: kinase selectivity panel, single concentration, duplicate
Procedure: (§1) We next assessed selectivity of MS67 against 22 protein methyltransferases (table S2) and a broad panel of common drug targets including 45 kinases (table S3) and 44 G protein–coupled receptors (GPCR), ion channels, and transporters (table S4). […] We subsequently determined that MS67 had moderate binding affinity (Ki = 1.0 ± 0.8 μM) to Sigma 2 receptor (fig. S10).

[2] = molecular target: T1, MAPK2 (Homo sapiens, UniProt P28482); design: kinase selectivity panel, single concentration, duplicate
T1 construct: gene MAPK1
Procedure: as §1

[3] = molecular target: EphA3 (Homo sapiens, UniProt P29320); design: kinase selectivity panel, single concentration, duplicate
Procedure: as §1

[4] = molecular target: T2, SGK (Homo sapiens, UniProt O00141); design: kinase selectivity panel, single concentration, duplicate
T2 construct: gene SGK1
Procedure: as §1

[5] = molecular target: T3, ROCK-I (Homo sapiens, UniProt Q13464); design: kinase selectivity panel, single concentration, duplicate
T3 construct: gene ROCK1
Procedure: as §1

[6] = molecular target: T4, TAO2 (Homo sapiens, UniProt Q9UL54); design: kinase selectivity panel, single concentration, duplicate
T4 construct: gene TAOK2
Procedure: as §1

[7] = molecular target: T5, Mnk2 (Homo sapiens, UniProt Q9HBH9); design: kinase selectivity panel, single concentration, duplicate
T5 construct: gene MKNK2
Procedure: as §1

[8] = molecular target: PAK4 (Homo sapiens, UniProt O96013); design: kinase selectivity panel, single concentration, duplicate
Procedure: as §1

[9] = molecular target: T6, GSK3β (Homo sapiens, UniProt P49841); design: kinase selectivity panel, single concentration, duplicate
T6 construct: gene GSK3B
Procedure: as §1

[10] = molecular target: T7, JNK1α1 (Homo sapiens, UniProt P45983); design: kinase selectivity panel, single concentration, duplicate
T7 construct: gene MAPK8; isoform alpha1
Procedure: as §1

[11] = molecular target: MAP4K4 (Homo sapiens, UniProt O95819); design: kinase selectivity panel, single concentration, duplicate
Procedure: as §1

[12] = molecular target: T8, PKA (Homo sapiens, UniProt P17612); design: kinase selectivity panel, single concentration, duplicate
T8 construct: gene PRKACA
Procedure: as §1

[13] = molecular target: CDK2/cyclinA (Homo sapiens, UniProt P24941); design: kinase selectivity panel, single concentration, duplicate
Procedure: as §1

[14] = molecular target: CDK1/cyclinB (Homo sapiens, UniProt P06493); design: kinase selectivity panel, single concentration, duplicate
Procedure: as §1

[15] = molecular target: T9, IKKα (Homo sapiens, UniProt O15111); design: kinase selectivity panel, single concentration, duplicate
T9 construct: gene CHUK
Procedure: as §1

[16] = molecular target: T10, SAPK2a (Homo sapiens, UniProt Q16539); design: kinase selectivity panel, single concentration, duplicate
T10 construct: gene MAPK14
Procedure: as §1

[17] = molecular target: T11, PKCβII (Homo sapiens, UniProt P05771); design: kinase selectivity panel, single concentration, duplicate
T11 construct: gene PRKCB; isoform beta II
Procedure: as §1

[18] = molecular target: Lck (Homo sapiens, UniProt P06239); design: kinase selectivity panel, single concentration, duplicate
Procedure: as §1

[19] = molecular target: T12, PKBα (Homo sapiens, UniProt P31749); design: kinase selectivity panel, single concentration, duplicate
T12 construct: gene AKT1
Procedure: as §1

[20] = molecular target: FGFR1 (Homo sapiens, UniProt P11362); design: kinase selectivity panel, single concentration, duplicate
Procedure: as §1

[21] = molecular target: T13, MAPKAP-K2 (Homo sapiens, UniProt P49137); design: kinase selectivity panel, single concentration, duplicate
T13 construct: gene MAPKAPK2
Procedure: as §1

[22] = molecular target: FGFR3 (Homo sapiens, UniProt P22607); design: kinase selectivity panel, single concentration, duplicate
Procedure: as §1

[23] = molecular target: IRAK4 (Homo sapiens, UniProt Q9NWZ3); design: kinase selectivity panel, single concentration, duplicate
Procedure: as §1

[24] = molecular target: T14, TRKA (Homo sapiens, UniProt P04629); design: kinase selectivity panel, single concentration, duplicate
T14 construct: gene NTRK1
Procedure: as §1

[25] = molecular target: T15, cSRC (Homo sapiens, UniProt P12931); design: kinase selectivity panel, single concentration, duplicate
T15 construct: gene SRC
Procedure: as §1

[26] = molecular target: KDR (Homo sapiens, UniProt P35968); design: kinase selectivity panel, single concentration, duplicate
Procedure: as §1

[27] = molecular target: T16, CaMKIIα (Homo sapiens, UniProt Q9UQM7); design: kinase selectivity panel, single concentration, duplicate
T16 construct: gene CAMK2A
Procedure: as §1

[28] = molecular target: T17, PDK1 (Homo sapiens, UniProt O15530); design: kinase selectivity panel, single concentration, duplicate
T17 construct: gene PDPK1
Procedure: as §1

[29] = molecular target: EZH2 Complex (Homo sapiens, UniProt Q15910); design: complex; protein methyltransferase inhibition panel, single concentration, duplicate
Procedure: as §1

T11 sequence (P05771 whole entry, canonical isoform): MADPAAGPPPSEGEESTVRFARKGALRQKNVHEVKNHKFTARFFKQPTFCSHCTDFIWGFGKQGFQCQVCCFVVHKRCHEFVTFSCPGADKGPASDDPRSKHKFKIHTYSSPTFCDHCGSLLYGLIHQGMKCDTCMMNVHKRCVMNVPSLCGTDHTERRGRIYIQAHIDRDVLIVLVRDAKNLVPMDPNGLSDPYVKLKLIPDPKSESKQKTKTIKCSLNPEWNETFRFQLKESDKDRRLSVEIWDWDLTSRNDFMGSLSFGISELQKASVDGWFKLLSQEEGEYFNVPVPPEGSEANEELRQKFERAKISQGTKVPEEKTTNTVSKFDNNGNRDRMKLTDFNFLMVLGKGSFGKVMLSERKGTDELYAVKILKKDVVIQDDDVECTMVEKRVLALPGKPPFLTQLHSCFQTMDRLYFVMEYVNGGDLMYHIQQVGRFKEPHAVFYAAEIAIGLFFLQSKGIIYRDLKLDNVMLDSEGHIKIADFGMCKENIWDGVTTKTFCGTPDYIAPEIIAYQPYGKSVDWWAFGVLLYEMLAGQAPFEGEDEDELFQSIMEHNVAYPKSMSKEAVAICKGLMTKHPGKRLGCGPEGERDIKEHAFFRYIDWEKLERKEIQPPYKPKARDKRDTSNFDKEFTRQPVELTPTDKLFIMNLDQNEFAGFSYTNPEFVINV
T12 sequence (P31749 whole entry): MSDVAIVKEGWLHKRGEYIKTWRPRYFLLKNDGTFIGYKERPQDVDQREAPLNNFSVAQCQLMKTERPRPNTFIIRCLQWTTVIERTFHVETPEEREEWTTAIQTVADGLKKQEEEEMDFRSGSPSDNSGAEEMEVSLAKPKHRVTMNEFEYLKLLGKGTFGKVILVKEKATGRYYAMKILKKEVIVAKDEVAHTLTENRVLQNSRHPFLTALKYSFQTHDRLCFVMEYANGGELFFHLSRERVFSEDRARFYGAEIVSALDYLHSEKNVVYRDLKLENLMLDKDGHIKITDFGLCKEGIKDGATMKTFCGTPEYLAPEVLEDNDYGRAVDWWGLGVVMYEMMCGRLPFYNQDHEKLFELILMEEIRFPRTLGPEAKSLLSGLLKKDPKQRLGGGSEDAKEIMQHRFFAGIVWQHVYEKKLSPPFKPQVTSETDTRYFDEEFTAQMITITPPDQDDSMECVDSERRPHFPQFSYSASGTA
T4 sequence (Q9UL54 whole entry): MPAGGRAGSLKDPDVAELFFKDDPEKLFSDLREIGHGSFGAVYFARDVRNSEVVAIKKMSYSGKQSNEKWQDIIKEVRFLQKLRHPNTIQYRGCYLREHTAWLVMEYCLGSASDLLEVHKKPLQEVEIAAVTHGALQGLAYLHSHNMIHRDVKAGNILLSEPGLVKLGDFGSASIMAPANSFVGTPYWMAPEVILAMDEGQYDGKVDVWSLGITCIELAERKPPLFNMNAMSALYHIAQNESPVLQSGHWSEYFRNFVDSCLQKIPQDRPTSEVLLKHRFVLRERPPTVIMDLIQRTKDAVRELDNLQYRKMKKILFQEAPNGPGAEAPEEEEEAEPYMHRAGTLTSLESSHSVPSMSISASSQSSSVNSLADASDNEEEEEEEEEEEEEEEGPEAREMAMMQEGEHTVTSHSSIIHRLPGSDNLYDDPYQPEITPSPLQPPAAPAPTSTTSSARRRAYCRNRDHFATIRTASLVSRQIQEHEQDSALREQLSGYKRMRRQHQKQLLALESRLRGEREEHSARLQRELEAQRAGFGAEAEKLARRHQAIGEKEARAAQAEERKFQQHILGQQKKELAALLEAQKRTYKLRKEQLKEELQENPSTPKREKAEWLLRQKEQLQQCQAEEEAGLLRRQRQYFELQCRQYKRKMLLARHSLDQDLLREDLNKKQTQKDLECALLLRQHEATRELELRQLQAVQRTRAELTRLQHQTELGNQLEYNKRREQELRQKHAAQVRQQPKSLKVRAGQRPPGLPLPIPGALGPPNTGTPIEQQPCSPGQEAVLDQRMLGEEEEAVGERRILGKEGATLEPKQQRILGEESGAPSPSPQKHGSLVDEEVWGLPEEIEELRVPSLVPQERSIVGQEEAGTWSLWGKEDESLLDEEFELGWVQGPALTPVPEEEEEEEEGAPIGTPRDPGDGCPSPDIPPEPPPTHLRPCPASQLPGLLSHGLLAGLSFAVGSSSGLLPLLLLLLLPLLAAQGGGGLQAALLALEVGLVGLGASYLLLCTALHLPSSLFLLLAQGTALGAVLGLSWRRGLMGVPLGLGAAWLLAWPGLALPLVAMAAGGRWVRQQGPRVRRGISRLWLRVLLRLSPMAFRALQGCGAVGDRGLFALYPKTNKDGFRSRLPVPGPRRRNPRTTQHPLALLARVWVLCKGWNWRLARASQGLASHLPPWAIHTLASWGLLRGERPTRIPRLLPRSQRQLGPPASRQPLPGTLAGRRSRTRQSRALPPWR
T7 sequence (P45983 whole entry, canonical isoform): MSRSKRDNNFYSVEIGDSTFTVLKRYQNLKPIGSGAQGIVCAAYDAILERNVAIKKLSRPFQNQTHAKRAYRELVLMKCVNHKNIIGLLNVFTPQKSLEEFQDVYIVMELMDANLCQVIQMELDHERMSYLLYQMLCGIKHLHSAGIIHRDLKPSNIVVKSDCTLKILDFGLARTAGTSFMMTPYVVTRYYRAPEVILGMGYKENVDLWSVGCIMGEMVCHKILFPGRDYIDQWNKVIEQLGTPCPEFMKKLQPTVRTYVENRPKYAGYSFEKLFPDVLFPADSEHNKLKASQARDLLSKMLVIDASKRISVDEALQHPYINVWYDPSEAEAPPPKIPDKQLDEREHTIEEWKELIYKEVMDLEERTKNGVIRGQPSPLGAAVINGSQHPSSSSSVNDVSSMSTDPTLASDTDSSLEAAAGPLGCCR
T9 sequence (O15111 whole entry): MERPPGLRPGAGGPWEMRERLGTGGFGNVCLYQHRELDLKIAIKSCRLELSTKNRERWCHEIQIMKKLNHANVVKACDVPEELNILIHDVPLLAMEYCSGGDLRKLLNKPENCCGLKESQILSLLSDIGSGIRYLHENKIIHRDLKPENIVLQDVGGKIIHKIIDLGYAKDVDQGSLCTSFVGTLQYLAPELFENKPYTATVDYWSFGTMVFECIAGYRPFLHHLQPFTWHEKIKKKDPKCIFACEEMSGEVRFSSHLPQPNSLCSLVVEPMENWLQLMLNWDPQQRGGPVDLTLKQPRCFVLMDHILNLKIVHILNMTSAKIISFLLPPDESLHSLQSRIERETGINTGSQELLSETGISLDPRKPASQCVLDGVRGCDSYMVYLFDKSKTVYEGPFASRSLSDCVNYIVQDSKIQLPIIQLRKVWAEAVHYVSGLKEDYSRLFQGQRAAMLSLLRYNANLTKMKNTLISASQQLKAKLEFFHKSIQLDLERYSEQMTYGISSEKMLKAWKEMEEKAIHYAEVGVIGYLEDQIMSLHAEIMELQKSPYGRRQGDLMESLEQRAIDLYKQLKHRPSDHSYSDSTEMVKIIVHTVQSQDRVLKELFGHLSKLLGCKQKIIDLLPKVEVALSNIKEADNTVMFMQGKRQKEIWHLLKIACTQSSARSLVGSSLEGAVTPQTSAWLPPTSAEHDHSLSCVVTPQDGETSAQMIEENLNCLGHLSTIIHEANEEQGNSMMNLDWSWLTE
T5 sequence (Q9HBH9 whole entry): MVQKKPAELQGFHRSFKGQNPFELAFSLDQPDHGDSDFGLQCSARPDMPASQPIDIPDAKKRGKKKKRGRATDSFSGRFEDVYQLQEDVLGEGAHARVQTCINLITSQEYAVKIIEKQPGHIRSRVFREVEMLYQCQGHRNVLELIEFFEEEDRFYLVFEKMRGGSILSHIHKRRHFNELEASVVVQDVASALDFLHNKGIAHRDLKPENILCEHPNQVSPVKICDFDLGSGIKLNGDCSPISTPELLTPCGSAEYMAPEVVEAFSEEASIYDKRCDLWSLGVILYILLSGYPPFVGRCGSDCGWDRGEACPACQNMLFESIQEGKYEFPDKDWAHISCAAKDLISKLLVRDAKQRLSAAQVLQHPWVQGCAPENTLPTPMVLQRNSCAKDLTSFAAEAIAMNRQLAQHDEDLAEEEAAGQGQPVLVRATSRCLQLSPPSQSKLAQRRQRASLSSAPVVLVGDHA
FGFR3, sequence (P22607 whole entry): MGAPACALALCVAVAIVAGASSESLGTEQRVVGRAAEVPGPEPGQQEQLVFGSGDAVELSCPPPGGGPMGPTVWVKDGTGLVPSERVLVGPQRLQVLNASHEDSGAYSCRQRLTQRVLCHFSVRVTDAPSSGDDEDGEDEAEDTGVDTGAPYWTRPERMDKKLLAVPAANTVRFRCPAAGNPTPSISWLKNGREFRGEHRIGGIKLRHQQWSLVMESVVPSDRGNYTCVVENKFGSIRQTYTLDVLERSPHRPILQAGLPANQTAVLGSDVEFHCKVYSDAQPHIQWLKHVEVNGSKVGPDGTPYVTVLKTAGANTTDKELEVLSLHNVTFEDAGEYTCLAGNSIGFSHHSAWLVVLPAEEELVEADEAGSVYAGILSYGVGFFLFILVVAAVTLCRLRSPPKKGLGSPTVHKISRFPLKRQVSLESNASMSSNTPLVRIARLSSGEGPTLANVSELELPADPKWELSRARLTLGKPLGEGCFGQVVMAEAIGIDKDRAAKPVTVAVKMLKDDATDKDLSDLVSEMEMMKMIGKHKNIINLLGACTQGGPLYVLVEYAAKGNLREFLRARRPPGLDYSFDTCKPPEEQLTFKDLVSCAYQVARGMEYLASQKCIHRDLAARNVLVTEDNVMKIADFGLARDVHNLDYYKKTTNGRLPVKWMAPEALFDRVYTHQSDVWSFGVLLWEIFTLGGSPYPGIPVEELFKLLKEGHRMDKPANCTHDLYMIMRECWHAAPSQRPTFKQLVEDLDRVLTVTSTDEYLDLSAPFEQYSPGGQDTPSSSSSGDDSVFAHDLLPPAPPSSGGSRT

Cc1ncsc1-c1ccc([C@H](C)NC(=O)[C@@H]2C[C@@H](O)CN2C(=O)[C@@H](NC(=O)CNC(=O)c2ccc(F)c(-c3ccc(N4C[C@@H](C)N(C)[C@@H](C)C4)c(NC(=O)c4c[nH]c(=O)cc4C(F)(F)F)c3)c2)C(C)(C)C)cc1 [MS67]
< 10%: inhibition at 1 µM [1] | inhibition at 1 µM [2] | inhibition at 1 µM [3] | inhibition at 1 µM [4] | inhibition at 1 µM [5] | inhibition at 1 µM [6] | inhibition at 1 µM [7] | inhibition at 1 µM [8] | inhibition at 1 µM [9] | inhibition at 1 µM [10] | inhibition at 1 µM [11] | inhibition at 1 µM [12] | inhibition at 1 µM [13] | inhibition at 1 µM [14] | inhibition at 1 µM [15] | inhibition at 1 µM [16] | inhibition at 1 µM [17] | inhibition at 1 µM [18] | inhibition at 1 µM [19] | inhibition at 1 µM [20] | inhibition at 1 µM [21] | inhibition at 1 µM [22] | inhibition at 1 µM [23] | inhibition at 1 µM [24] | inhibition at 1 µM [25] | inhibition at 1 µM [26] | inhibition at 1 µM [27] | inhibition at 1 µM [28] | inhibition at 10 µM [29]
